Experimental data published in PubChem BioAssay (NCI).
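Grown in 96-well plates, cells were treated for 48 hours with each compound at five concentrations. Insufficient inhibition: endpoint recorded as highest concentration tested. Abbreviation: GI50, concentration required for 50% inhibition of growth. Definition used: TGI = concentration required for complete inhibition of growth.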

Columns and labels:
Assay in all cases: NCI tumour cell line growth inhibition, 48 h
MALME-3M melanoma = system: MALME-3M melanoma
OVCAR-4 ovarian = system: OVCAR-4 ovarian
M14 melanoma = system: M14 melanoma
RXF 393 renal = system: RXF 393 renal
SK-MEL-28 melanoma = system: SK-MEL-28 melanoma
KM12 colon = system: KM12 colon
A498 renal = system: A498 renal
BT-549 breast = system: BT-549 breast
SN12C renal = system: SN12C renal
UACC-257 melanoma = system: UACC-257 melanoma

## CN1CCN(C(=O)C(C)(C)c2ccc(C(=O)Nc3cn4cc(-c5ccncc5)ccc4n3)cc2)CC1
MALME-3M melanoma
  GI50: 0.26 µM
  TGI: 0.773 µM
OVCAR-4 ovarian
  GI50: 0.35 µM
  TGI: > 100 µM
M14 melanoma
  GI50: 0.389 µM
  TGI: 22.8 µM
RXF 393 renal
  GI50: 0.316 µM
  TGI: 1.01 µM
SK-MEL-28 melanoma
  GI50: 0.343 µM
  TGI: 6.47 µM
KM12 colon
  GI50: 0.175 µM
  TGI: > 60.3 µM
A498 renal
  GI50: 0.157 µM
  TGI: 0.418 µM
BT-549 breast
  GI50: 0.332 µM
  TGI: 14.9 µM
SN12C renal
  GI50: 0.267 µM
  TGI: > 100 µM
UACC-257 melanoma
  GI50: 0.296 µM
  TGI: 15.1 µM

## O=C1CCCCCCCCCCC1CN1CCCC1 (centres undefined)
MALME-3M melanoma
  TGI: > 100 µM
M14 melanoma
  TGI: 47.2 µM
RXF 393 renal
  TGI: 65.4 µM
SK-MEL-28 melanoma
  TGI: 55.6 µM
KM12 colon
  TGI: > 100 µM
A498 renal
  TGI: > 100 µM
BT-549 breast
  TGI: > 100 µM
SN12C renal
  TGI: > 100 µM
UACC-257 melanoma
  TGI: 49.3 µM

## C=Cc1cncc(C#N)c1CCc1c(C#N)cncc1C=C
MALME-3M melanoma
  GI50: > 100 µM
  TGI: > 100 µM
OVCAR-4 ovarian
  TGI: > 10 µM
M14 melanoma
  GI50: > 100 µM
  TGI: > 100 µM
RXF 393 renal
  GI50: > 10 µM
  TGI: > 100 µM
SK-MEL-28 melanoma
  TGI: > 10 µM
KM12 colon
  GI50: > 100 µM
  TGI: > 100 µM
A498 renal
  GI50: > 100 µM
  TGI: > 100 µM
SN12C renal
  GI50: > 100 µM
  TGI: > 100 µM
UACC-257 melanoma
  GI50: > 100 µM
  TGI: > 100 µM

## Cn1ncnc1[C@H]1c2n[nH]c(=O)c3cc(F)cc(c23)N[C@@H]1c1ccc(F)cc1
MALME-3M melanoma
  GI50: > 100 µM
  TGI: > 100 µM
OVCAR-4 ovarian
  GI50: 14.6 µM
  TGI: > 100 µM
M14 melanoma
  GI50: 4.19 µM
  TGI: > 100 µM
RXF 393 renal
  GI50: 25.9 µM
  TGI: > 100 µM
SK-MEL-28 melanoma
  GI50: > 100 µM
  TGI: > 100 µM
KM12 colon
  GI50: > 100 µM
  TGI: > 100 µM
A498 renal
  GI50: 28.6 µM
  TGI: > 100 µM
BT-549 breast
  GI50: > 87.1 µM
  TGI: > 100 µM
SN12C renal
  GI50: 3.26 µM
  TGI: > 100 µM
UACC-257 melanoma
  GI50: > 100 µM
  TGI: > 100 µM

## COc1ccc2c(c1)NC1=C(C(=O)OC1)C2c1cc(OC)c2c(c1)OCO2 (centres undefined)
MALME-3M melanoma
  GI50: > 100 µM
  TGI: > 100 µM
OVCAR-4 ovarian
  GI50: 0.0257 µM
  TGI: > 100 µM
M14 melanoma
  GI50: 0.0132 µM
  TGI: 0.0585 µM
RXF 393 renal
  GI50: < 0.0167 µM
  TGI: > 72.4 µM
SK-MEL-28 melanoma
  TGI: > 100 µM
A498 renal
  GI50: < 0.0146 µM
  TGI: 0.0437 µM
BT-549 breast
  GI50: 0.046 µM
  TGI: > 100 µM
SN12C renal
  GI50: 0.0288 µM
  TGI: > 100 µM
UACC-257 melanoma
  TGI: > 100 µM

## COc1ccc2c(CN3CCCC[C@H]3C(=O)O)cc3cc4c(cc3c2c1)OCO4
M14 melanoma
  GI50: 3.72 µM
  TGI: 10.5 µM
RXF 393 renal
  GI50: 0.414 µM
  TGI: 2.03 µM
SK-MEL-28 melanoma
  GI50: 0.7 µM
  TGI: 2.33 µM
KM12 colon
  GI50: 3.69 µM
  TGI: 52.5 µM
A498 renal
  GI50: 1.55 µM
  TGI: 3.06 µM
BT-549 breast
  GI50: 2.6 µM
  TGI: 6.6 µM
SN12C renal
  GI50: 1 µM
  TGI: 4.31 µM

## C=C1C(O)C2C(=C(CC)C13CC3)C(=O)C(C)(C)C2OC (centres undefined)
MALME-3M melanoma
  GI50: > 100 µM
  TGI: > 100 µM
OVCAR-4 ovarian
  GI50: > 100 µM
  TGI: > 100 µM
M14 melanoma
  GI50: 59.4 µM
  TGI: > 100 µM
RXF 393 renal
  GI50: > 100 µM
  TGI: > 100 µM
SK-MEL-28 melanoma
  GI50: > 100 µM
  TGI: > 100 µM
KM12 colon
  GI50: 60.9 µM
  TGI: > 100 µM
A498 renal
  GI50: > 100 µM
  TGI: > 100 µM
BT-549 breast
  GI50: > 100 µM
  TGI: > 100 µM
SN12C renal
  GI50: 74.2 µM
  TGI: > 100 µM
UACC-257 melanoma
  GI50: 35.6 µM
  TGI: > 100 µM

## C[C@H](OCc1ccccc1)C(=O)N1CCS(=O)(=O)N2CCC[C@@H]2C1=O
MALME-3M melanoma
  TGI: > 100 µM
OVCAR-4 ovarian
  TGI: > 100 µM
M14 melanoma
  TGI: > 100 µM
RXF 393 renal
  TGI: > 100 µM
SK-MEL-28 melanoma
  TGI: > 100 µM
KM12 colon
  TGI: > 100 µM
A498 renal
  TGI: > 100 µM
SN12C renal
  TGI: > 100 µM
UACC-257 melanoma
  TGI: > 100 µM

## CCCCOC(=O)N1CCN(/[N+]([O-])=N/Oc2ccc([N+](=O)[O-])cc2[N+](=O)[O-])CC1
RXF 393 renal
  GI50: 17.6 µM
  TGI: 40.4 µM
SK-MEL-28 melanoma
  GI50: 13.7 µM
  TGI: 35.7 µM
KM12 colon
  GI50: 3.65 µM
  TGI: 14.5 µM
BT-549 breast
  GI50: 4.87 µM
  TGI: 17.7 µM
SN12C renal
  GI50: 11 µM
  TGI: 31.5 µM
UACC-257 melanoma
  GI50: 13.4 µM
  TGI: 29 µM

## COc1ccc(/C=C/c2cc(OC)c(OC)c(OC)c2)cc1
MALME-3M melanoma
  TGI: 74.3 µM
OVCAR-4 ovarian
  TGI: > 100 µM
M14 melanoma
  TGI: > 100 µM
RXF 393 renal
  TGI: 2.62 µM
SK-MEL-28 melanoma
  TGI: 96.8 µM
KM12 colon
  TGI: > 100 µM
A498 renal
  TGI: > 100 µM
SN12C renal
  TGI: > 100 µM
UACC-257 melanoma
  TGI: > 100 µM

## CN(C)CCN1C(=O)c2c(c3c4ccccc4n4c3c3c2c2ccccc2n3C2CC(O)C(O)C4(C)O2)C1=O (centres undefined)
MALME-3M melanoma
  GI50: 2.14 µM
  TGI: 9.3 µM
OVCAR-4 ovarian
  GI50: 2.69 µM
  TGI: 13.6 µM
M14 melanoma
  GI50: 1.71 µM
  TGI: 7.47 µM
RXF 393 renal
  GI50: 1.89 µM
  TGI: 8.27 µM
SK-MEL-28 melanoma
  GI50: 3.02 µM
  TGI: 10.4 µM
KM12 colon
  GI50: 1.74 µM
  TGI: 10.2 µM
A498 renal
  GI50: 1.24 µM
  TGI: 7.88 µM
BT-549 breast
  GI50: 5.32 µM
  TGI: 13 µM
SN12C renal
  GI50: 0.914 µM
  TGI: 7.87 µM
UACC-257 melanoma
  GI50: 3.32 µM
  TGI: 9.79 µM

## O=c1cnn(C2OC(CO)C(O)C2O)c(=S)[nH]1 (centres undefined)
MALME-3M melanoma
  TGI: > 100 µM
OVCAR-4 ovarian
  TGI: > 100 µM
M14 melanoma
  TGI: > 100 µM
RXF 393 renal
  TGI: > 100 µM
SK-MEL-28 melanoma
  TGI: > 100 µM
KM12 colon
  TGI: > 100 µM
A498 renal
  TGI: > 100 µM
BT-549 breast
  TGI: > 100 µM
SN12C renal
  TGI: > 100 µM
UACC-257 melanoma
  TGI: > 100 µM

## CC(C)(C)C(=O)OCC1C(=O)OCC1C(=O)N1Cc2cc3ccccc3nc2C1 (centres undefined)
MALME-3M melanoma
  TGI: 2.98 µM
OVCAR-4 ovarian
  TGI: 7.67 µM
M14 melanoma
  TGI: 8.08 µM
RXF 393 renal
  TGI: 3.27 µM
SK-MEL-28 melanoma
  TGI: 10.8 µM
KM12 colon
  TGI: 29.8 µM
A498 renal
  TGI: 26 µM
BT-549 breast
  TGI: 8.83 µM
SN12C renal
  TGI: 16.8 µM
UACC-257 melanoma
  TGI: 13.4 µM

## COc1ccc(CCN2CC=Cn3c2nc2ccccc2c3=O)cc1
OVCAR-4 ovarian
  GI50: 0.0637 µM
  TGI: > 96 µM
RXF 393 renal
  GI50: 0.0309 µM
  TGI: > 100 µM
SK-MEL-28 melanoma
  GI50: 0.694 µM
  TGI: > 100 µM
KM12 colon
  GI50: 0.0167 µM
  TGI: > 100 µM
A498 renal
  GI50: 0.0203 µM
  TGI: 0.0851 µM
BT-549 breast
  GI50: 0.0611 µM
  TGI: 15.5 µM
SN12C renal
  GI50: 0.116 µM
  TGI: > 61.1 µM
UACC-257 melanoma
  GI50: 20.5 µM
  TGI: > 100 µM

## CCOC(=O)CCC(NC(=O)OCc1ccccc1)C(=O)NC(CCC(=O)OCC)C(=O)NC(CCC(=O)OCC)C(=O)NC(CCC(=O)OCC)C(=O)NC(CCC(=O)OCC)C(=O)NC(CCC(=O)OCC)C(=O)NC(CCC(=O)OCC)C(=O)OCC (centres undefined)
MALME-3M melanoma
  TGI: > 100 µM
OVCAR-4 ovarian
  TGI: > 100 µM
M14 melanoma
  TGI: > 100 µM
SK-MEL-28 melanoma
  TGI: > 100 µM
A498 renal
  TGI: > 100 µM
BT-549 breast
  TGI: > 100 µM
SN12C renal
  TGI: > 100 µM
UACC-257 melanoma
  TGI: > 100 µM
